Patent US11083725B2 (priority 2014, dated 2021)

System: NHBE cells
Assay: Biolog metabolic array: substrate use by NHBE cells with or without CA09 infection
Type: cell-based, human
Details: for Substrate use, 590 nm absorbance normalized to zero hour, 1 hr: Biolog PMM2, 1 hr; for Substrate use, 590 nm absorbance normalized to zero hour, 5 hr: Biolog PMM2, 5 hr; for Substrate use, 590 nm absorbance normalized to zero hour, 7 hr: Biolog PMM2, 7 hr
[1] = Control (uninfected) NHBE cells
[2] = Virus (CA09-infected, MOI 1) NHBE cells
[3] = Virus: CA09-infected NHBE cells, MOI 1, Biolog PMM2
[4] = Virus (CA09-infected NHBE cells, MOI 1)

SMILES | 590 nm absorbance normalized to zero hour (substrate use), 1 hr [1] | 590 nm absorbance normalized to zero hour (substrate use), 2 hr [1] | 590 nm absorbance normalized to zero hour (substrate use), 3 hr [1] | 590 nm absorbance normalized to zero hour (substrate use), 4 hr [1] | 590 nm absorbance normalized to zero hour (substrate use), 6 hr [1] | 590 nm absorbance normalized to zero hour (substrate use), 8 hr [1] | 590 nm absorbance normalized to zero hour (substrate use), 9 hr [1] | 590 nm absorbance normalized to zero hour (substrate use), 10 hr [1] | 590 nm absorbance normalized to zero hour (substrate use), 11 hr [1] | Substrate use, 590 nm absorbance normalized to zero hour, 1 hr [1] | Substrate use, 590 nm absorbance normalized to zero hour, 5 hr [1] | Substrate use, 590 nm absorbance normalized to zero hour, 7 hr [1] | 590 nm absorbance normalized to zero hour (substrate use), 1 hr [3] | 590 nm absorbance normalized to zero hour (substrate use), 2 hr [3] | 590 nm absorbance normalized to zero hour (substrate use), 3 hr [3] | 590 nm absorbance normalized to zero hour (substrate use), 4 hr [3] | 590 nm absorbance normalized to zero hour (substrate use), 5 hr [3] | 590 nm absorbance normalized to zero hour (substrate use), 6 hr [3] | 590 nm absorbance normalized to zero hour (substrate use), 7 hr [3] | 590 nm absorbance normalized to zero hour (substrate use), 8 hr [3] | also measured
OC[C@H]1O[C@H](OC[C@H]2O[C@H](OC[C@H]3O[C@H](O[C@]4(CO)O[C@H](CO)[C@@H](O)[C@@H]4O)[C@H](O)[C@@H](O)[C@@H]3O)[C@H](O)[C@@H](O)[C@H]2O)[C@H](O)[C@@H](O)[C@H]1O [Stachyose] | 8.51 | 8.20 | 7.94 | 8.00 | 3.45 | 3.67 | 3.90 | 9.13 | 4.47 | 8.51 | 3.55 | 6.99 | 1.42 | 1.76 | 1.96 | 2.07 | 4.65 | 5.10 | 3.71 | 3.40 | 590 nm absorbance normalized to zero hour (substrate use), 0 hr [1]: 1.00; Substrate use, 590 nm absorbance normalized to zero hour, 0 hr (Control (uninfected) NHBE cells, Biolog PMM2, 0 hr): 1.00; 590 nm absorbance normalized to zero hour (substrate use), 0 hr [2]: 1.00; 590 nm absorbance normalized to zero hour (substrate use), 1 hr [2]: 1.42; 590 nm absorbance normalized to zero hour (substrate use), 2 hr [2]: 1.76; 590 nm absorbance normalized to zero hour (substrate use), 3 hr [2]: 1.96; 590 nm absorbance normalized to zero hour (substrate use), 4 hr [2]: 2.07; 590 nm absorbance normalized to zero hour (substrate use), 5 hr [2]: 4.65; 590 nm absorbance normalized to zero hour (substrate use), 6 hr [2]: 5.10; 590 nm absorbance normalized to zero hour (substrate use), 7 hr [2]: 3.71; 590 nm absorbance normalized to zero hour (substrate use), 8 hr [2]: 3.40; 590 nm absorbance normalized to zero hour (substrate use), 9 hr [2]: 3.17; 590 nm absorbance normalized to zero hour (substrate use), 10 hr [2]: 2.89; 590 nm absorbance normalized to zero hour (substrate use), 11 hr [2]: 4.13; 590 nm absorbance normalized to zero hour (substrate use), 0 hr [3]: 1.00; 590 nm absorbance normalized to zero hour (substrate use), 9 hr [3]: 3.17; 590 nm absorbance normalized to zero hour (substrate use), 10 hr [3]: 2.89; 590 nm absorbance normalized to zero hour (substrate use), 11 hr [3]: 4.13
C[C@H](O)[C@H](O)[C@@H](O)[C@@H](O)C=O [L-Rhamnose] | 1.28 | 1.52 | 1.49 | 1.66 | 2.53 | 2.01 | 2.71 | 2.22 | 2.36 | 1.28 | 2.12 | 1.91 | 0.16 | 0.22 | 0.25 | 0.28 | 0.32 | 0.34 | 0.36 | 0.38 | 590 nm absorbance normalized to zero hour (substrate use), 1 hr [4]: 0.16; 590 nm absorbance normalized to zero hour (substrate use), 2 hr [4]: 0.22; 590 nm absorbance normalized to zero hour (substrate use), 3 hr [4]: 0.25; 590 nm absorbance normalized to zero hour (substrate use), 4 hr [4]: 0.28; 590 nm absorbance normalized to zero hour (substrate use), 5 hr [4]: 0.32; 590 nm absorbance normalized to zero hour (substrate use), 6 hr [4]: 0.34; 590 nm absorbance normalized to zero hour (substrate use), 7 hr [4]: 0.36; 590 nm absorbance normalized to zero hour (substrate use), 8 hr [4]: 0.38; 590 nm absorbance normalized to zero hour (substrate use), 9 hr [4]: 0.41; 590 nm absorbance normalized to zero hour (substrate use), 10 hr [4]: 0.43; 590 nm absorbance normalized to zero hour (substrate use), 11 hr [4]: 0.46; 590 nm absorbance normalized to zero hour (substrate use), 9 hr [3]: 0.41; 590 nm absorbance normalized to zero hour (substrate use), 10 hr [3]: 0.43; 590 nm absorbance normalized to zero hour (substrate use), 11 hr [3]: 0.46
CC(=O)C(=O)O [Pyruvic Acid] | 1.34 | 1.40 | 1.54 | 1.61 | 1.39 | 1.57 | 1.71 | 1.81 | 2.49 | 1.34 | 1.70 | 1.52 | 1.27 | 0.82 | 0.94 | 1.20 | 1.10 | 1.09 | 1.06 | 0.67 | 590 nm absorbance normalized to zero hour (substrate use), 1 hr [2]: 1.27; 590 nm absorbance normalized to zero hour (substrate use), 2 hr [2]: 0.82; 590 nm absorbance normalized to zero hour (substrate use), 3 hr [2]: 0.94; 590 nm absorbance normalized to zero hour (substrate use), 4 hr [2]: 1.20; 590 nm absorbance normalized to zero hour (substrate use), 5 hr [2]: 1.10; 590 nm absorbance normalized to zero hour (substrate use), 6 hr [2]: 1.09; 590 nm absorbance normalized to zero hour (substrate use), 7 hr [2]: 1.06; 590 nm absorbance normalized to zero hour (substrate use), 8 hr [2]: 0.67; 590 nm absorbance normalized to zero hour (substrate use), 9 hr [2]: 0.65; 590 nm absorbance normalized to zero hour (substrate use), 10 hr [2]: 0.75; 590 nm absorbance normalized to zero hour (substrate use), 11 hr [2]: 0.61; 590 nm absorbance normalized to zero hour (substrate use), 9 hr [3]: 0.65; 590 nm absorbance normalized to zero hour (substrate use), 10 hr [3]: 0.75; 590 nm absorbance normalized to zero hour (substrate use), 11 hr [3]: 0.61
